Values quoted from earlier work as cited in PMC4411882, “Developmental Potential for Endomorphin Opioidmimetic Drugs” (International Journal of Medicinal Chemistry, 2012).
Like-named read-outs stand apart in the source and are kept apart here. Where a SMILES comes first, the peptide text is derived from it. [ ]: non-standard residue; d: D form. The star is where a group is joined. Dmt = Cc1cc(O)cc(C)c1C[C@H](N)C(=O)O; NHBn = c1ccc(CN*)cc1

What was measured:
δ-opioid receptor (MVD) = target: T1, δ-opioid receptor (MVD) (Mus musculus, UniProt P32300); set-up: species or system mouse vas deferens
T1 construct: gene Oprd1; mouse vas deferens (MVD) bioassay
T1 sequence (P32300 whole entry): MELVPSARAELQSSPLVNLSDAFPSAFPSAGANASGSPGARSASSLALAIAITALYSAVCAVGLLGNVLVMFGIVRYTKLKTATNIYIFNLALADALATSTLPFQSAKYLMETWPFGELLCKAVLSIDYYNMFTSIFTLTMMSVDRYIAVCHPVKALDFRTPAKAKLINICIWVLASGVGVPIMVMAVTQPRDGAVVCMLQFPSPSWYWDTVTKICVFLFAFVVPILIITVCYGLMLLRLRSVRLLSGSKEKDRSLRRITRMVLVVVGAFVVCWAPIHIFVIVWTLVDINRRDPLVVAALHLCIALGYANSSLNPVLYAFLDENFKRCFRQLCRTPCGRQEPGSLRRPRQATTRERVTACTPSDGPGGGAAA
Source text: (§1) Therefore, we substituted hydrophobic groups in lieu of the phenethyl group to develop the class of H-Dmt-Pro-Phe-NH-X ligands (Figure 1).

μ-opioid receptor (GPI) = target: T2, μ-opioid receptor (GPI) (Cavia porcellus, UniProt P97266); set-up: species or system guinea pig ileum
T2 construct: gene OPRM1; guinea pig ileum (GPI) bioassay
T2 sequence (P97266 whole entry): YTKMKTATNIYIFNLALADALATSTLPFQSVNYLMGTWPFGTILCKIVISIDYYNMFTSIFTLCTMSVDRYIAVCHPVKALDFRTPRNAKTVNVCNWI
Source text: as §1

μ-opioid receptor [1] = target: T3, μ-opioid receptor (Rattus norvegicus, UniProt P33535); set-up: gene Oprm1; rat brain P2 synaptosomal preparations; species or system rat brain P2 synaptosomal preparations; conditions: read-out: Kiμ
T3 sequence (P33535 whole entry): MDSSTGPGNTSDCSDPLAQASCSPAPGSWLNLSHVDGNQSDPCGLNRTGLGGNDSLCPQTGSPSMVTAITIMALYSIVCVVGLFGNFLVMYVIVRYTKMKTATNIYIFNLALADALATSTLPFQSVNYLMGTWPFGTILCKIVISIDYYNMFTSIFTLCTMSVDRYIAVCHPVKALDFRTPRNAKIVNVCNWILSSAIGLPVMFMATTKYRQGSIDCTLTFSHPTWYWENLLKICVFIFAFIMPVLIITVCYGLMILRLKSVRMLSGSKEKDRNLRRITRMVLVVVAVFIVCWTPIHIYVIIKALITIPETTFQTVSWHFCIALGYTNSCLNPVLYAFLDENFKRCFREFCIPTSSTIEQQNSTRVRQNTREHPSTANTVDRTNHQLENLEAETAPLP

δ-opioid receptor [2] = target: T4, δ-opioid receptor (Rattus norvegicus, UniProt P33533); set-up: gene Oprd1; rat brain P2 synaptosomal preparations; species or system rat brain P2 synaptosomal preparations; conditions: read-out: Kiδ
T4 sequence (P33533 whole entry): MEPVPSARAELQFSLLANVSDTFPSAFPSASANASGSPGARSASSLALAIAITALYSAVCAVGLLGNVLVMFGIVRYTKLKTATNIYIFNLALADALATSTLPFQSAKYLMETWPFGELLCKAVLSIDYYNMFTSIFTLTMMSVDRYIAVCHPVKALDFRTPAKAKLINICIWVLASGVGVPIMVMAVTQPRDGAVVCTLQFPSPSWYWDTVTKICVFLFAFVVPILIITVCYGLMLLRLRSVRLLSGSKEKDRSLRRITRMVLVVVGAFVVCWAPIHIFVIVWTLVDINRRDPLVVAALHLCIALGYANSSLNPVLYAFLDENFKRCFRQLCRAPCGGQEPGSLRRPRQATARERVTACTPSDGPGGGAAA

μ-opioid receptor [3] = target: T3, μ-opioid receptor; set-up: gene Oprm1; conditions: read-out: Kiμ
δ-opioid receptor [4] = target: T4, δ-opioid receptor; set-up: gene Oprd1; conditions: read-out: Kiδ

Compound | IC50 (δ-opioid receptor (MVD)) [nM] | IC50 (μ-opioid receptor (GPI)) [nM] | Ki (μ-opioid receptor [1]) [nM] | Ki (δ-opioid receptor [2]) [nM] | Ki (μ-opioid receptor [3]) [nM] | Ki (δ-opioid receptor [4]) [nM]
Cc1cccc(C)c1C[C@H](NC(=O)[C@@H]1CCCN1C(=O)[C@@H](N)Cc1c(C)cc(O)cc1C)C(=O)N[C@@H](Cc1ccccc1)C(N)=O [compound 42, H-Dmt-Pro-Dmp-Phe-NH2] | > 10000 | 0.12 | 0.069 | 2.27 | – | –
Cc1cc(O)cc(C)c1C[C@H](N)C(=O)N1Cc2ccccc2C[C@H]1C(=O)NCCCCNC(=O)[C@@H]1Cc2ccccc2CN1C(=O)[C@@H](N)Cc1c(C)cc(O)cc1C [compound 66, bis[Dmt-Tic-NH]butane] | > 10000 | > 10000 | 5.72 | 0.124 | – | –
Cc1cc(O)cc(C)c1CC(C(=O)N1Cc2ccccc2CC1C(=O)NCCCc1[nH]c(=O)c(CCCNC(=O)C2Cc3ccccc3CN2C(=O)C(Cc2c(C)cc(O)cc2C)N(C)C)nc1C)N(C)C (stereo not drawn) [compound 70, 3,6-bis[N,N-dimethyl-Dmt-Tic-NH-propyl]-5-methyl-2(1H)-pyrazinone] | > 10000 | > 10000 | 1.68 | 0.287 | – | –
H-Dmt-Pro-Tmp-Phe-NH2 [compound 44] | > 10000 | 0.21 | 0.18 | 1.83 | – | –
Cc1cc(O)cc(C)c1C[C@H](N)C(=O)NCCCCNC(=O)[C@@H](N)Cc1c(C)cc(O)cc1C [compound 52, Dmt-NH-(CH2)4-NH-Dmt] | > 10000 | 5.33 | 0.041 | 53.4 | – | –
Cc1cc(O)cc(C(C)C)c1C[C@H](N)C(=O)N1CCC[C@H]1C(=O)N[C@@H](Cc1ccccc1)C(=O)N[C@@H](Cc1ccccc1)C(N)=O [compound 36, H-Imt-Pro-Phe-Phe-NH2] | 601 | 10.6 | 0.15 | 190 | – | –
C=CCNC(Cc1c(C)cc(O)cc1C)C(=O)NCCCCCCNC(=O)C(Cc1c(C)cc(O)cc1C)NCC=C (stereo not shown) [compound 49, 1,6-bis[N-allyl-Dmt-NH]hexane] | > 10000 | > 10000 | 12.4 | 51.5 | – | –
Cc1cc(O)cc(C)c1C[C@H](N)C(=O)N1CCC[C@H]1C(=O)N[C@@H](Cc1c[nH]c2ccccc12)C(=O)N[C@@H](Cc1ccccc1)C(N)=O [compound 19, H-Dmt-Pro-Trp-Phe-NH2, [Dmt^1]EM-1] | > 10000 | 0.27 | 0.054 | 5.6 | – | –
Cc1cc(O)cc(C)c1C[C@H](N)C(=O)NCCNC(=O)[C@@H](N)Cc1c(C)cc(O)cc1C [compound 51, Dmt-NH-(CH2)2-NH-Dmt] | > 10000 | 2840 | 1.43 | 116 | – | –
Cc1cc(O)cc(C)c1CC(N)C(=O)N1Cc2ccccc2CC1C(=O)NCCCc1[nH]c(=O)c(CCCNC(=O)C2Cc3ccccc3CN2C(=O)C(N)Cc2c(C)cc(O)cc2C)nc1C (stereo not drawn) [compound 61, 3,6-bis[Dmt-Tic-NH(CH2)3]-5-methyl-2(1H)-pyrazinone] | > 10000 | 7020 | 3.08 | 0.155 | – | –
Cc1cc(O)cc(C)c1C[C@H](N)C(=O)N1Cc2ccccc2C[C@H]1C(=O)NCCCCCCCCCCNC(=O)[C@@H]1Cc2ccccc2CN1C(=O)[C@@H](N)Cc1c(C)cc(O)cc1C [compound 68, bis[Dmt-Tic-NH]decane] | > 10000 | 5420 | 4.86 | 1.53 | – | –
CNC(=O)C(N)Cc1c(C)cc(O)cc1C (stereo not shown) [H-Dmt-NH-CH3] | – | – | – | – | 7.45 | 460
Cc1cc(O)cc(C)c1C[C@H](N)C(=O)N1CCC[C@H]1C(=O)N[C@@H](Cc1ccccc1)C(=O)Nc1ccc2ncccc2c1 [compound 31, H-Dmt-Pro-Phe-NH-6-Qln] | > 10000 | 6.21 | 0.22 | 46.6 | – | –
Cc1cc(O)cc(C)c1C[C@H](N)C(=O)NCCCCCCCCNC(=O)[C@@H](N)Cc1c(C)cc(O)cc1C [compound 54, Dmt-NH-(CH2)8-NH-Dmt] | > 10000 | 53.7 | 0.19 | 14.8 | – | –
Cc1cc(O)cc(C)c1CC(N)C(=O)NCc1[nH]c(=O)c(CNC(=O)C(N)Cc2c(C)cc(O)cc2C)nc1C (stereo not shown) [compound 55, 3,6-bis[Dmt-NH-CH2]-5-methyl-2(1H)-pyrazinone] | > 10000 | 1700 | 1.16 | 15.7 | – | –
Cc1cc(O)cc(C)c1CC(N)C(=O)N1Cc2ccccc2CC1C(=O)NCCCCc1[nH]c(=O)c(CCCCNC(=O)C2Cc3ccccc3CN2C(=O)C(N)Cc2c(C)cc(O)cc2C)nc1C (stereo not drawn) [compound 62, 3,6-bis[Dmt-Tic-NH(CH2)4]-5-methyl-2(1H)-pyrazinone] | > 10000 | > 10000 | 1.74 | 0.323 | – | –
Cc1cc(O)cc(C)c1CC(N)C(=O)N1Cc2ccccc2CC1C(=O)NCCc1[nH]c(=O)c(CCNC(=O)C2Cc3ccccc3CN2C(=O)C(N)Cc2c(C)cc(O)cc2C)nc1C (stereo not drawn) [compound 60, 3,6-bis[Dmt-Tic-NH(CH2)2]-5-methyl-2(1H)-pyrazinone] | > 10000 | > 10000 | 2.83 | 0.095 | – | –
Cc1cc(O)cc(C)c1CC(N)C(=O)N1Cc2ccccc2CC1C(=O)NCCCCc1[nH]c(=O)c(CCCNC(=O)C2Cc3ccccc3CN2C(=O)C(N)Cc2c(C)cc(O)cc2C)nc1C (stereo not drawn) [compound 63, 3-[Dmt-Tic-NH(CH2)3]-6-[Dmt-Tic-NH(CH2)4]-5-methyl-2(1H)-pyrazinone] | > 10000 | > 10000 | 1.56 | 0.16 | – | –
Cc1cc(O)cc(C)c1C[C@H](N)C(=O)N1CCC[C@H]1C(=O)N[C@@H](Cc1ccccc1)C(=O)NCc1ccccc1 [compound 23, H-Dmt-Pro-Phe-NH-Bzl] (H-[Dmt]-Pro-Phe-NHBn) | > 10000 | 22 | 0.52 | 13.8 | – | –
H-Dmt-Pro-Mmp-Phe-NH2 [compound 40] | > 10000 | 0.16 | 0.18 | 4.61 | – | –
H-Mmt-Pro-Phe-Phe-NH2 [compound 34] | 28.7 | 0.924 | 0.132 | 529 | – | –
